# Measured values taken from US6436421B1, “Pesticide compositions” (priority 1997, dated 2002).
# Read-outs that look alike come from different tables or passages of the source.
# Legend:
# [1] = type: physicochemical
# Experimental: One method to evaluate the efficacy of a pesticide adjuvant is to measure its affect on the ability of the pesticide composition to resist wash-off from a surface. One skilled in the art will recognize that a pesticide which remains on the surface of a plant will be expected to have increased efficacy.
# A suspension of the pesticide formulation was prepared by adding a premix of water and surfactant, with and without the polymer additives, followed by vigorous shaking of the mixtures by hand. Pieces of Parafilm™M laboratory film, a very soft, flexible, and hydrophobic film, were taped to plastic petrie dishes. The suspensions were sprayed with an automated sprayer as the petrie dishes with attached film were moved at a standard rate below the sprayer. The spray residues were allowed to dry, and a second application of spray was applied. One set of films was exposed, at an inclination of 45 degrees, to approximately 25 mm of water applied by a spray bar (equipped with TX-4 cone-type spray nozzles) that moved back and forth over the samples for a period of about 1 hour. The exposed films were allowed to dry. Another set of films was not exposed to water.
# Infra-red spectra of the films were obtained by an Attenuated Total Reflection (ATR) technique. The films were pressed against a Zinc Selenide crystal that had been cleaned previously with methanol. Spectra were recorded with a Spectratech Allied Systems Fourier Transform Infra-Red Spectrometer, and stored in a computer. Peaks associated with pesticide residue were identified by inspection and peak areas were calculated by computer (Pesticide Peak Area, “PA”). A corresponding area for a Parafilm™ peak as similar as possible in peak location and size (in the same spectrum) was calculated (Film Peak Area, “FA”). […] A measure of the pesticide on the surface “P” was derived from the following calculation:
# A relative measure of the amount of pesticide remaining after the above exposure to water was then derived from the following calculation: [formula]
# Although the intensity of spectral peaks recorded with the ATR technique are very dependent on details of contact with the film, by obtaining a ratio of the pesticide peak to the film peak in the same spectral recording, different spectra can be compared with details of contact being compensated for, since they will have similar effects on the intensity of the pesticide absorption and the film absorption. The intensity of the pesticide peak relative to the film peak will depend on the degree of coverage of the film by the pesticide. To maximize coverage, the spraying was conducted twice. Furthermore, a wetting agent (surfactant) was included in the premix to promote wetting of the film by the spray droplets. Since exposure to water can result in re-distribution of the pesticide as well as wash-off of the pesticide, the measure of the amount remaining is only relative.
# In all cases, a measured amount of pesticide was mixed with 270 grams of deionized water and 30 grams of 0.5% Silwet L-77 surfactant. This premix was divided into 50 gram portions. One portion was sprayed without adding polymer. For mixes containing polymer, 66.6 milligrams powder polymer or 1.32 g of a 5% solids dilution of the emulsion polymer were added to the 50 grams of premix.
# TX-2 nozzle 12 inches above laboratory film.
# 58 psi (delivers 150 cc/minute).
# Laboratory film moves at 1 mile/hour.
# Fan nozzle 14 inches above laboratory film.
# 29 psi (Spray 15 cc with two passes over laboratory film at a rate to give 25 gallons/acre).
# [2] = tested on: Beet Armyworm larvae; assay: Beet Armyworm control on potted rice plants using tebufenozide; type: in vivo
# Source text: Rice plants grown in pots were sprayed with one of two different versions of a 300 parts per million (based on active ingredient level) suspension of tebufenozide in water. In one version, the tebufenozide was supplied as Mimic® 10 W insecticide, a wettable powder, from Rohm and Haas Company. In the second version, approximately 30% by weight of the carrier in the Mimic® 10 W insecticide was replaced with Powder V from the above examples and approximately 10% by weight of the clay carrier was replaced by Aerosol®OTB surfactant. One portion of each of the sprayed plant samples was subjected to approximately 25 millimeters of water applied by a spray bar to simulate rain. The plants were cut and fed to Beet Armyworm larvae. Percent mortality was then evaluated.
# [3] = tested on: beet armyworm; assay: Beet Armyworm control under field conditions on Chinese kale; type: in vivo; details: 300 g of tebufenozide per hectare, compared to untreated control plot
# Experimental: Each of two different plots of Chinese kale grown under typical field conditions was treated with one of the two tebufenozide formulations described above at an application rate of 300 g of tebufenozide per hectare in 750 liters of water per hectare. The percent beet armyworm mortality in each plot was compared to an untreated control plot.
# [4] = tested on: grape downy mildew caused by Plasmopara viticola; assay: Grape field test of disease control with mancozeb fungicide; type: in vivo
# Experimental: (§1) For grapes, single plant plots with three replicates/treatment were treated at seven day intervals, with a total of seven applications. Treatments were water-based spray mixtures of mancozeb with or without polymer additives added to the water shortly before spraying. The mixtures were applied with a backpack sprayer using carbon dioxide pressure atomization (45 psi) with a boom having three D3 (Cone) nozzles, at a rate of 640 liters/hectare. The treatments included a control with no fungicide applied, a full rate of mancozeb without additive (2.8 kg active ingredient/hectare), and a half rate of mancozeb (1.4 kg active ingredient/hectare) with or without additives. The polymer additives were used at ⅓ kg. of additive solids/kg. of active ingredient. The mancozeb formulation was a wettable powder with 75% active ingredient.
# (§2) Assessments of percent infection (of grape downy mildew caused by Plasmopara viticola) of foliage were made 7 days after treatment # 7 (7DAT#7). These assessments are tabulated below. Data were analyzed by Duncan's multiple range test, using P=0.05.
# (§3) Three different solid redispersible powders were evaluated; Powders I and II from the previous example and powder V, an all acrylic copolymer (Drycryl™DP-2904 redispersible powder, a cement modifier of the Rohm and Haas Company). Three different emulsion polymers were evaluated for comparison; Emulsion IV from the previous example; Emulsion VI, a poly(vinylacetate) emulsion (Rovace™ 117 emulsion from the Rohm and Haas Company, used as a general purpose adhesive component); and Emulsion VII, an acrylic emulsion polymer (Rhoplex™ 2438 emulsion from the Rohm and Haas Company, a component of elastomeric wall coatings).
# (§4) In several of the evaluations, a surfactant was added to the spray mixture. When used, the surfactant was a solid powder of 90% dioctyl sodium sulfosuccinate and 10% sodium benzoate (Aerosol® OTB surfactant from Cytec Company).
# [5] = tested on: Cercospora arachidicola (Early Leaf Spot); assay: Peanut field test of disease control with mancozeb fungicide; type: in vivo
# Experimental: as §1, §2
# Peanuts were evaluated the same as grapes except that the plots were 1 meter×5 meter (1 row), with 4 replicates per treatment, there were 9 applications, the boom had five D2 (C45) nozzles, the full rate of mancozeb was 1.6 kg active ingredient/hectare, the final assessment was 23 days after treatment #9 (23DAT#9), and the predominant disease at this time was Cercospora arachidicola (Early Leaf Spot).
# as §3, §4
# [6] = Half rate, Emulsion IV, no surfactant
# [7] = Half rate, Emulsion VI, no surfactant
# [8] = Half rate, Emulsion VI, with surfactant
# [9] = Half rate, Emulsion VII, no surfactant
# [10] = Half rate, Powder I, no surfactant
# [11] = Half rate, Powder II, no surfactant
# [12] = Half rate, Powder II, with surfactant
# [13] = Half rate, Powder V, no surfactant
Molecule,"% AI Retained After One Inch Spray-Bar Rain, M (mean) ([1]; No Polymer) [%]","% AI Retained After One Inch Spray-Bar Rain, M (mean) ([1]; with Emulsion IV) [%]","% AI Retained After One Inch Spray-Bar Rain, M (mean) ([1]; with Powder I) [%]","% AI Retained After One Inch Spray-Bar Rain, M (mean) ([1]; with Powder II) [%]","% AI Retained After One Inch Spray-Bar Rain, M (mean) ([1]; with Powder III) [%]",further results
CNC(=O)Oc1cccc2ccccc12 [carbaryl],25,40,31,32,27,–
CNC(=O)Oc1cccc2c1OC(C)(C)C2 [carbofuran],3,9,39,23,16,–
CN(C)C(CSC(N)=O)CSC(N)=O [cartap],4,3,5,8,8,–
N#Cc1c(Cl)c(Cl)c(Cl)c(C#N)c1Cl [chlorothalonil],2,12,16,54,4,–
[Cu+2].[OH-].[OH-] [copper hydroxide],20,11,22,80,21,–
OC(c1ccc(Cl)cc1)(c1ccc(Cl)cc1)C(Cl)(Cl)Cl [dicofol],18,95,76,62,62,–
N#CC(CCc1ccc(Cl)cc1)(Cn1cncn1)c1ccccc1 (stereo not shown) [fenbuconazole],9,83,63,82,48,–
CCCCC(C#N)(Cn1cncn1)c1ccc(Cl)cc1 (stereo not shown) [myclobutanil],13,74,56,77,44,–
CCOc1cc(Oc2ccc(C(F)(F)F)cc2Cl)ccc1[N+](=O)[O-] [oxyfluorfen],17,152,66,137,55,–
CCC(=O)Nc1ccc(Cl)c(Cl)c1 [propanil],9,18,38,27,21,–
CCc1ccc(C(=O)NN(C(=O)c2cc(C)cc(C)c2)C(C)(C)C)cc1 [tebufenozide],40,59,71,67,40,"Beet Armyworm Mortality (%) ([2]; With Rain (approximately 25 millimeters of water by spray bar), 300 parts per million suspension): 28%; Beet Armyworm Mortality (%) ([2]; Without Rain, rice plants sprayed with 300 parts per million suspension): 90%; Beet Armyworm Control (%) [3]: 35%"
dinitro-(1-methylheptyl) phenyl crotonate [dinocap],3,40,49,47,19,–
mancozeb,–,–,–,–,–,"Infection on Grape 7DAT#7 ([4]; Full rate (2.8 kg active ingredient/hectare), no polymer additive, no surfactant): 41.7 cd percent; Infection on Grape 7DAT#7 ([4]; Half rate (1.4 kg active ingredient/hectare), no polymer additive, no surfactant): 63.3 b percent; Infection on Grape 7DAT#7 [4, 6]: 38.3 de percent; Infection on Grape 7DAT#7 [4, 7]: 43.3 cd percent; Infection on Grape 7DAT#7 [4, 8]: 31.7 fg percent; Infection on Grape 7DAT#7 [4, 9]: 41.7 cd percent; Infection on Grape 7DAT#7 [4, 10]: 46.7 c percent; Infection on Grape 7DAT#7 [4, 11]: 43.3 cd percent; Infection on Grape 7DAT#7 [4, 12]: 28.3 g percent; Infection on Grape 7DAT#7 [4, 13]: 46.7 c percent; Infection on Peanut 23DAT#9 ([5]; Full rate (1.6 kg active ingredient/hectare), no polymer additive, no surfactant): 27.5 cd percent; Infection on Peanut 23DAT#9 [5, 6]: 25.0 de percent; Infection on Peanut 23DAT#9 [5, 7]: 22.5 ef percent; Infection on Peanut 23DAT#9 [5, 8]: 13.8 h percent; Infection on Peanut 23DAT#9 [5, 9]: 21.3 f percent; Infection on Peanut 23DAT#9 [5, 10]: 23.8 ef percent; Infection on Peanut 23DAT#9 [5, 11]: 32.5 c percent; Infection on Peanut 23DAT#9 [5, 12]: 17.5 g percent; Infection on Peanut 23DAT#9 [5, 13]: 22.5 ef percent; Infection on Peanut 23DAT#9 ([5]; Half rate, no polymer additive, no surfactant): 41.3 b percent"
manganese ethylenebisdithiocarbamate [maneb],16,103,76,108,86,–
